These are literature values, as cited in US12285483B2 (priority 2020, dated 2025).

The conditions of this data set: pure solanesol, room temperature.

With solanesol, the solubility in water entry is “insoluble in water”.
